The text below walks through data of PubChem BioAssay AID816 (SRMLSC, 2007).

Each structure is given as a SMILES string. Calls of active or inactive are those of the source. How the calls were made is not given here. Where only a bound is given, the exact number is not on record here.

In the experiment the test system is S. cerevisiae GAL1 promoter reporter activation counterscreen. Briefly: yeast Gal1p promoter activation – S. cerevisiae, artefact control for yeast lifespan extension project (AID 816).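 Further: yeast growth read after 24 h of incubation with compounds.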
Turning to `CCSc1nnc(NC(=O)CSc2nc(C)cc(C)n2)s1`, the EC50 is > 40 µM (inactive).

`CCOC(=O)c1[nH]nc(C(=O)c2ccc(Br)cc2)c1O`: the EC50 was > 40 µM (inactive).

On to `Cc1ccnc(N=Cc2c(O)ccc3oc4c(c23)CCCC4)c1`, for which the EC50 is > 40 µM (inactive).

Turning to `CC(C)(C)OC(=O)[C@H]1[C@H](c2ccc([N+](=O)[O-])cc2)C2(C(=O)c3ccccc3C2=O)C2c3ccccc3C=NN21` (some centres undefined), the EC50 is > 40 µM (inactive).

With `CCCn1c(C)cc(C(=O)COc2ncnc3sccc23)c1C`, the EC50 was > 40 µM (inactive).

For `Cc1cc(C)nc(SCc2cc(=O)c(OC(=O)c3ccc(Br)o3)co2)n1`, the EC50 is > 40 µM (inactive).

`Cc1ccc(-c2ccc(/C=C3\C(=O)ON=C3c3ccccc3)o2)c([N+](=O)[O-])c1`: the EC50 was > 40 µM (inactive).

For `CCOC(=O)/C(=C\c1cn(C)c2ccccc12)[N+](=O)[O-]`, the EC50 was > 40 µM (inactive).

Consider `CC1(C)CC2c3cccc(C(=O)O)c3C(=O)N2c2c1ccc1ccccc21` (centres undefined), for which the EC50 was > 40 µM (inactive).

`O=C(O)c1c[nH]c(=S)n1-c1ccc(F)cc1`: the EC50 was > 40 µM (inactive).

For `COC(=O)CSc1ncccc1-c1nc2ccccc2[nH]1`, the EC50 was > 40 µM (inactive).

For `O=C(NCC1CCCO1)c1c(O)c2ccccc2[nH]c1=O` (centres undefined), the EC50 was > 40 µM (inactive).

With `O=Cc1cc2ccccc2nc1SCc1ccc(Cl)cc1`, the EC50 was > 40 µM (inactive).

In the case of `O=C(CCN1CCCCCC1)Nc1ccc(F)cc1`, the EC50 was > 40 µM (inactive).

On to `Cc1ccsc1C(=O)Nc1nnc(-c2ccco2)o1`, for which the EC50 is > 40 µM (inactive).

As to `CCOC(=O)CSC1=NC(=O)/C(=C/c2ccc(OC)cc2)S1`, the EC50 is > 40 µM (inactive).

Take `COc1cc(OC)cc(-c2nc3ccccc3c(=O)n2OC(=O)c2ccccc2C)c1`: the EC50 is > 40 µM (inactive).

`O=C(O)c1cccc2c1C(=O)N(C1CCCCC1)C2`: the EC50 was > 40 µM (inactive).

`O=C(Nc1scc(-c2ccc(F)cc2)c1C(=O)O)c1ccco1`: the EC50 is > 40 µM (inactive).

With `CCCCCCN1CC(C(=O)OCC)C(=O)C1=O` (centres undefined), the EC50 was > 40 µM (inactive).

For the compound `Fc1cccc2sc(Nc3nnc(-c4ccccc4)o3)nc12`, the EC50 was > 40 µM (inactive).

For the compound `COCCCN(C(=S)Nc1cc(Cl)cc(Cl)c1)C(C)c1ccncc1` (centres undefined), the EC50 was > 40 µM (inactive).

In the case of `CCOC(=O)CC1=NN(c2ccccc2)C(=O)/C1=C\c1ccc(OC)cc1OC`, the EC50 was > 40 µM (inactive).

As for `CC(=C1C(=O)c2ccccc2C1=O)N1CCN(c2ccccn2)CC1`, the EC50 was > 40 µM (inactive).

As for `C=C(C(=O)c1ccccc1)C(C)C(=C)C(=O)c1ccccc1`, the EC50 is > 40 µM (inactive).

As for `O=C(Oc1ccc([N+](=O)[O-])cc1)c1ccc2ccccc2n1`, the EC50 was > 40 µM (inactive).

Consider `CCOC(=O)c1ccc2c(c1)n(CCO)c(C)[n+]2CC`, for which the EC50 was > 40 µM (inactive).

With `CC1CCCCC1NC(=O)/C(C#N)=C/c1ccccc1F` (centres undefined), the EC50 is > 40 µM (inactive).

Consider `CN1CCN(C(=S)Nc2cc([N+](=O)[O-])ccc2Cl)CC1`, for which the EC50 is > 40 µM (inactive).

Turning to `CCc1ccc2nc(N3C(=O)C(O)=C(C(=O)c4ccco4)C3c3cccs3)sc2c1` (centres undefined), the EC50 is > 40 µM (inactive).

Turning to `O=C(NCCc1ccccn1)C(F)(F)C(F)(F)C(F)(F)C(F)(F)C(F)(F)C(F)(F)C(F)(F)C(F)F`, the EC50 was > 40 µM (inactive).

In the case of `CN1CCC2(CC1)C(C#N)=C(N)NC(S)=C2C#N`, the EC50 was > 40 µM (inactive).

Take `O=c1c2ccccc2sn1-c1ccccc1`: the EC50 was > 40 µM (inactive).

Regarding `COc1ccc(C(=O)On2c(-c3ccc(Br)cc3)nc3ccccc3c2=O)cc1`, the EC50 was > 40 µM (inactive).

Regarding `Cc1ccnc(SCc2cc(=O)c(OC(=O)c3ccco3)co2)n1`, the EC50 was > 40 µM (inactive).

Consider `O=c1c2ccccc2nc(-c2cccc(Cl)c2)n1O`, for which the EC50 was > 40 µM (inactive).

As for `Cc1cc2c(c(=O)n1CCc1ccccc1)C(c1ccco1)C(C#N)=C(N)O2` (centres undefined), the EC50 was > 40 µM (inactive).

`Cc1ncc(C23CC4CC(CC(C4)C2)C3)[nH]1`: the EC50 was > 40 µM (inactive).

Take `Cc1ccc(C(=O)NNC(=S)NC(=O)c2ccc(Cl)cc2)cc1`: the EC50 was > 40 µM (inactive).

Regarding `CCCCOC(=O)n1c(=O)oc2cc(S(=O)(=O)N3CCCCC3)ccc21`, the EC50 was > 40 µM (inactive).

As for `Cc1ccc(C)c(N2CCN(S(=O)(=O)c3c(C)noc3/C=C/N(C)C)CC2)c1`, the EC50 is > 40 µM (inactive).

`CN(Cc1c(O)ccc2c1oc(=O)c1ccccc12)C1CCCCC1`: the EC50 is > 40 µM (inactive).

For the compound `CC1(C)Oc2ccccc2OC1(O)c1ccc2ccccc2n1` (centres undefined), the EC50 was > 40 µM (inactive).

Take `COc1ccc(N(C(=O)C(C)C)S(=O)(=O)c2ccc(Cl)cc2)cc1`: the EC50 is > 40 µM (inactive).

With `CC(C)CN=C(NS(=O)(=O)c1ccccc1)C(Cl)(Cl)Cl`, the EC50 was > 40 µM (inactive).

Consider `COc1ccc2c3c(cccc13)C(=O)N(O)C2=O`, for which the EC50 was > 40 µM (inactive).

Regarding `O=[N+]([O-])c1cc(S(=O)(=O)N2CCCCCC2)ccc1F`, the EC50 is > 40 µM (inactive).

Take `O=C(NCc1ccco1)c1c(O)c2cccc3c2n(c1=O)CCC3`: the EC50 was > 40 µM (inactive).

As to `O=S(=O)(ON(c1ccccc1)S(=O)(=O)c1ccccc1)c1ccccc1`, the EC50 is > 40 µM (inactive).

Turning to `CCOC(=O)C1=C(N)OC2=C(C(=O)CCC2)C1c1sccc1C` (centres undefined), the EC50 is > 40 µM (inactive).

With `O=C1CC(c2ccccc2)CC(O)=C1C=NCCN1CCN(C(=O)Cc2ccccc2)CC1` (centres undefined), the EC50 was > 40 µM (inactive).

Consider `COc1ccc(/C=C(\C#N)C(=O)N2CCOCC2)cc1Br`, for which the EC50 was > 40 µM (inactive).

With `Cc1ccc2nc(N3C(=O)C(O)=C(C(=O)c4ccco4)C3c3cccs3)sc2c1` (centres undefined), the EC50 was > 40 µM (inactive).

For the compound `Cc1cc(N=Cc2c(O)ccc3ccccc23)no1`, the EC50 is > 40 µM (inactive).

`O=C(N/N=C/c1cccc(F)c1)c1c(O)c2ccccc2[nH]c1=O`: the EC50 is > 40 µM (inactive).

With `COc1ccccc1CNC(=O)C(CCSC)NS(=O)(=O)c1ccc2c(c1)oc(=O)n2C` (centres undefined), the EC50 was > 40 µM (inactive).

Take `CC(C)c1noc2ncc(C(=O)c3cc(Cl)cc(Cl)c3O)cc12`: the EC50 was > 40 µM (inactive).

For the compound `CS(=O)(=O)c1nc(-c2cccs2)cc(C(F)(F)F)n1`, the EC50 was > 40 µM (inactive).

Regarding `Cc1cc(NS(=O)(=O)c2ccc(CC(C)C)cc2)no1`, the EC50 is > 40 µM (inactive).

On to `O=C(N/N=C/c1ccccc1)c1c(O)c2ccccc2[nH]c1=O`, for which the EC50 is > 40 µM (inactive).

On to `Cc1ccc(/C=C2/C(=O)NC(=O)N(CCc3ccc(F)cc3)C2=O)o1`, for which the EC50 was > 40 µM (inactive).

In the case of `Cc1cccc(N2C(=O)/C(=C\c3ccc(OC(F)F)cc3)c3ccccc3C2=O)c1`, the EC50 is > 40 µM (inactive).

On to `O=S(=O)(CCSc1ccccn1)c1nc2ccccc2s1`, for which the EC50 was > 40 µM (inactive).

For `C=C(C)CN(CC)C(=O)COc1ccc(S(=O)(=O)Nc2ccc(OC)cc2)cc1`, the EC50 was > 40 µM (inactive).

In general, EC50 refers to the concentration needed to bring the measured effect to its halfway point.
